Among the data in ChEMBL document CHEMBL2331104, “Characterization of human carbonic anhydrase XII stability and inhibitor binding” (Bioorg Med Chem, 2013) are Activity and Ki values, retold here.

The target of assay [1] is T1, Carbonic anhydrase 12 (Homo sapiens, UniProt O43570). Put plainly: Binding affinity to human recombinant carbonic anhydrase 12 expressed in Escherichia coli Rosetta (DE3) assessed as protein stability at pH 10 by fluorescent thermal shift assay.
Assay [2] deals with T1, Carbonic anhydrase 12. Put plainly: Binding affinity to human recombinant carbonic anhydrase 12 expressed in Escherichia coli Rosetta (DE3) assessed as protein stability at pH 6 by fluorescent thermal shift assay.
The target of assay [3] is T1, Carbonic anhydrase 12. In words: Binding affinity to human recombinant carbonic anhydrase 12 expressed in Escherichia coli Rosetta (DE3) assessed as protein stability at pH 5 by fluorescent thermal shift assay.
In assay [4] the target is T1, Carbonic anhydrase 12. In words: Inhibition of human carbonic anhydrase 12.

Each structure is given as a SMILES string. Activity calls are given as the source filed them. No cut-off for these calls is given here.

T1 sequence (O43570 whole entry): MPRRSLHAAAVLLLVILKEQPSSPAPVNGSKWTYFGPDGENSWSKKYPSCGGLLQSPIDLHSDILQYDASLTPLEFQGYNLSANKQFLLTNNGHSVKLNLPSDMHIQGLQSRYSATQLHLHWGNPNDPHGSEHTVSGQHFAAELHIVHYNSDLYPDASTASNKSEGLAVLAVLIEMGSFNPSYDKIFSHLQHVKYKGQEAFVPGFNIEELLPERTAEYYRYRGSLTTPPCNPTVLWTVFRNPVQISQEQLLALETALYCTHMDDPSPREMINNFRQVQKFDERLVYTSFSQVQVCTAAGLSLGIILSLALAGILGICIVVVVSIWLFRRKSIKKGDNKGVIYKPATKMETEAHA

For `CCOc1ccc2nc(S(N)(=O)=O)sc2c1`, the outcome in assay [1] and in assay [3] was inactive. Also, in assay [2], the outcome was Active.

As to `CCc1ccc2ccc(=O)oc2c1C(C)=O`, the Ki (commonly a dissociation constant, usually derived from enzyme kinetics or from competition with a known ligand) in assay [4] was found to be 1 nM.

With `NS(=O)(=O)C(F)(F)F`, the result in assay [1] and in assay [3] was inactive. Besides, in assay [2], the outcome was Active.

On to `CCCc1ccc2ccc(=O)oc2c1C(C)=O`, for which the Ki in assay [4] worked out at 0.98 nM.
